In EP4800015A1, “AZABICYCLO DERIVATIVE AND PREPARATION METHOD THEREFOR, AND USE” (Zhejiang Hisun Pharmaceutical Co., Ltd., priority 2023, dated 2025):
Like-named read-outs stand apart in the source and are kept apart here.

Molecular target: T1, recombinant human WRN (Homo sapiens, UniProt Q14191)
T1 construct: purchased BPS 101264
Experiment: Inhibition of WRN enzyme activity (ATPase), ADP-Glo Kinase Assay
Type: biochemical
Details: WRN protein 5 nM, Flap 0.1 nM, ATP 30 µM
Method in brief: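 Recombinant human WRN (5 nM) was preincubated with compound (1000–0.004 nM) for 15 min at room temperature. Flap26 5'-flap DNA (0.1 nM) and 30 µM ATP were then added for 10 min in Tris pH 7.5, MgCl2, NaCl, BSA, Pluronic buffer. ADP was detected by ADP-Glo luminescence, and IC50 was obtained by nonlinear regression versus a 0.1% DMSO control.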

T1 sequence (Q14191 whole entry): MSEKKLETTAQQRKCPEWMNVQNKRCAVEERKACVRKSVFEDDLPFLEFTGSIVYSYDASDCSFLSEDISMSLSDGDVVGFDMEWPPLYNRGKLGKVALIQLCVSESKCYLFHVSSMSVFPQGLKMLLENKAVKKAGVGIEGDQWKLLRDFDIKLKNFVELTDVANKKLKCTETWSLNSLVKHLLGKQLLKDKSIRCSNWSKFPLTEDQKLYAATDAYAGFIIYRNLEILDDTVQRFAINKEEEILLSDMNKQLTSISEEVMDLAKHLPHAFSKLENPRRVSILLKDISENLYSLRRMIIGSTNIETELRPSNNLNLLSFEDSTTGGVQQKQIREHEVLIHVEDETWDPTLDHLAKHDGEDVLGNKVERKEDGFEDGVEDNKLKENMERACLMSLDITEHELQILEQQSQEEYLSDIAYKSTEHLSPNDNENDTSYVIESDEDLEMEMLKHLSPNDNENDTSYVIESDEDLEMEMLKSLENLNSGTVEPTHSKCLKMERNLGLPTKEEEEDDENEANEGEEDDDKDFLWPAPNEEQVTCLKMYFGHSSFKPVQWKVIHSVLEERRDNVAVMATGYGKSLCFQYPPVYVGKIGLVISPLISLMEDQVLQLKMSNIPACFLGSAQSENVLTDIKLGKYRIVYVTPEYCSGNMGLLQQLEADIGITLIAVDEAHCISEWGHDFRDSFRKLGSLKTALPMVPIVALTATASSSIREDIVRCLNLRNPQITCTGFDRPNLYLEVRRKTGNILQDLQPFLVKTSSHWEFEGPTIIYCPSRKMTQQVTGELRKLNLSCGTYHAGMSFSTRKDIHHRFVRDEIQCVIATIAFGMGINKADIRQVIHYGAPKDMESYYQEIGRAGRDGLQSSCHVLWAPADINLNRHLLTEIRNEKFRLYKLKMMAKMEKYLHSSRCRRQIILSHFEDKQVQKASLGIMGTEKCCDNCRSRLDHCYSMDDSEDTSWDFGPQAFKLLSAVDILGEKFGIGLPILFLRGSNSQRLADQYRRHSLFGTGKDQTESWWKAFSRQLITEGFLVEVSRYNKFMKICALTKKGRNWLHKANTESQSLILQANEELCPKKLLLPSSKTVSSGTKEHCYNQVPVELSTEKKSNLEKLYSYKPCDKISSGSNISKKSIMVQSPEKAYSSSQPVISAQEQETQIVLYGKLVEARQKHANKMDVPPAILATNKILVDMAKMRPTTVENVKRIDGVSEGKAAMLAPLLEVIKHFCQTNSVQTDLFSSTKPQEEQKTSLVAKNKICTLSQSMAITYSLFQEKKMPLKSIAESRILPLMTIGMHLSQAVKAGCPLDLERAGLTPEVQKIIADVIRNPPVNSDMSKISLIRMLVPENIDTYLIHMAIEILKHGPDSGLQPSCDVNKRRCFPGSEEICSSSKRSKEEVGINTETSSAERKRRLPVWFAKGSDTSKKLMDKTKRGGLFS

| SMILES | IC50 | IC50 (read-out: IC50) |
| --- | --- | --- |
| CCc1c(N2CCN(C(=O)c3ncnc(C)c3O)CC2)c(=O)n2nc(-c3ccc4nc[nH]c4c3)nc2n1CC(=O)Nc1ccc(C(F)(F)F)cc1Cl [Example 138, 2-(2-(1H-benzo[d]imidazol-6-yl)-5-ethyl-6-(4-(5-hydroxy-6-methylpyrimidine-4-carbonyl)piperazin-1-yl)-7-oxo-[1,2,4]triazolo[1,5-a]pyrimidin-4(7H)-yl)-N-(2-chloro-4-(trifluoromethyl)phenyl) acetamide] | 1 to 100 nM |  |
| CCc1c(N2CCN(C(=O)c3ncnc(C)c3O)CC2)c(=O)n2nc(-c3ccc4cnn(C)c4c3)nc2n1CC(=O)Nc1ccc(C(F)(F)F)cc1Cl [Example 139, N-(2-chloro-4-(trifluoromethyl)phenyl)-2-(5-ethyl-6-(4-(5-hydroxy-6-methylpyrimidine-4-carbonyl)piperazin-1-yl)-2-(1-methyl-1H-indazol-6-yl)-7-oxo-[1,2,4]triazolo[1,5-a]pyrimidin-4(7H)-yl) acetamide] | 1 to 100 nM |  |
| CCc1c(N2CCN(C(=O)c3ncnc(C)c3O)CC2)c(=O)n2nc(-c3ccc4c(c3)CC(=O)N4)nc2n1CC(=O)Nc1ccc(C(F)(F)F)cc1Cl [Example 141, N-(2-chloro-4-(trifluoromethyl)phenyl)-2-(5-ethyl-6-(4-(5-hydroxy-6-methylpyrimidine-4-carbonyl)piperazin-1-yl)-7-oxo-2-(2-oxoindolin-5-yl)-[1,2,4]triazolo[1,5-a]pyrimidin-4(7H)-yl)acetamide] |  | 1 to 100 nM |
| CCc1c(N2CCN(C(=O)c3ncnc(C)c3O)CC2)c(=O)n2nc(C3=CC4(CCNCC4)C3)nc2n1CC(=O)Nc1ccc(C(F)(F)F)cc1Cl [Example 143, N-(2-chloro-4-(trifluoromethyl)phenyl)-2-(5-ethyl-6-(4-(5-hydroxy-6-methylpyrimidine-4-carbonyl)piperazin-1-yl)-7-oxo-2-(7-azaspiro[3.5]non-1-en-2-yl)-[1,2,4]triazolo[1,5-a]pyrimidin-4(7H)-yl)acetamide] |  | 1 to 100 nM |
| CCc1c(N2CCN(C(=O)c3ncnc(C)c3O)CC2)c(=O)n2nc(C3=CC4CN(C)CC4C3)nc2n1CC(=O)Nc1ccc(C(F)(F)F)cc1Cl (stereo not shown) [Example 144, N-(2-chloro-4-(trifluoromethyl)phenyl)-2-(5-ethyl-6-(4-(5-hydroxy-6-methylpyrimidine-4-carbonyl)piperazin-1-yl)-2-(2-methyl-1,2,3,3a,4,6a-hexahydrocyclopenta[c]pyrrol-5-yl)-7-oxo-[1,2,4]triazolo[1,5-a]pyrimidin-4(7H)-yl)acetamide] |  | 1 to 100 nM |
| CCc1c(N2CCN(C(=O)c3ncnc(C)c3O)CC2)c(=O)n2nc(C3=CC4CN(C(C)=O)CC4C3)nc2n1CC(=O)Nc1ccc(C(F)(F)F)cc1Cl (stereo not shown) [Example 145, 2-(2-(2-Acetyl-1,2,3,3a,4,6a-hexahydrocyclopenta[c]pyrrol-5-yl)-5-ethyl-6-(4-(5-hydroxy-6-methylpyrimidine-4-carbonyl)piperazin-1-yl)-7-oxo-[1,2,4]triazolo[1,5-a]pyrimidin-4(7H)-yl)-N-(2-chloro-4-(trifluoromethyl)phenyl)acetamide] |  | 1 to 100 nM |
| CCc1c(N2CCN(C(=O)c3ncnc(C)c3O)CC2)c(=O)n2nc(C3=CC4CNCC4C3)nc2n1CC(=O)Nc1ccc(S(F)(F)(F)(F)F)cc1 (stereo not shown) [Example 146, 2-(5-Ethyl-2-(1,2,3,3a,4,6a-hexahydrocyclopenta[c]pyrrol-5-yl)-6-(4-(5-hydroxy-6-methylpyrimidine-4-carbonyl)piperazin-1-yl)-7-oxo-[1,2,4]triazolo[1,5-a]pyrimidin-4(7H)-yl)-N-(4-(pentafluoro-λ^6-sulfaneyl)phenyl)acetamide] |  | 1 to 100 nM |
| CCc1c(N2CCN(C(=O)c3ncnc(C)c3O)CC2)c(=O)n2nc(-c3ccc4c(c3)CCO4)nc2n1CC(=O)Nc1ccc(SC(F)F)cc1Cl [Example 148, N-(2-chloro-4-((difluoromethyl)thio)phenyl)-2-(2-(2,3-dihydrobenzofuran-5-yl)-5-ethyl-6-(4-(5-hydroxy-6-methylpyrimidine-4-carbonyl)piperazin-1-yl)-7-oxo-[1,2,4]triazolo[1,5-a]pyrimidin-4(7 H)-yl)acetamide] |  | 1 to 100 nM |
| CCc1c(N2CCN(C(=O)c3ncncc3O)CC2)c(=O)n2nc(C3=CC4COCC4C3)nc2n1CC(=O)Nc1ccc(C(F)(F)F)cc1Cl (stereo not shown) [Example 160, N-(2-chloro-4-(trifluoromethyl)phenyl)-2-(5-ethyl-6-(4-(5-hydroxypyrimidine-4-carbonyl)piperazin-1-yl)-7-oxo-2-(3,3a,4,6a-tetrahydro-1H-cyclopenta[c]furan-5-yl)-[1,2,4]triazolo[1,5-a]pyrimidin-4(7H)-yl)acetamide] |  | 1 to 100 nM |
| CCc1c(N2CCN(C(=O)c3ncnc(C)c3O)CC2)c(=O)n2nc(C3=CCCCOC3)nc2n1CC(=O)Nc1ccc(SC(F)(F)F)cc1Cl [Example 165, N-(2-chloro-4-((trifluoromethyl)thio)phenyl)-2-(5-ethyl-6-(4-(5-hydroxy-6-methylpyrimidine-4-carbonyl)piperazin-1-yl)-7-oxo-2-(2,5,6,7-tetrahydrooxepin-3-yl)-[1,2,4]triazolo[1,5-a]pyrimidin-4(7H)-yl)acetamide] |  | 1 to 100 nM |
| [2H]C([2H])([2H])Sc1ccc(NC(=O)Cn2c(CC)c(N3CCN(C(=O)c4ncnc(C)c4O)CC3)c(=O)n3nc(C4=CCCCOC4)nc23)c(Cl)c1 [Example 166, N-(2-chloro-4-((methyl-d3)thio)phenyl)-2-(5-ethyl-6-(4-(5-hydroxy-6-methylpyrimidine-4-carbonyl)piperazin-1-yl)-7-oxo-2-(2,5,6,7-tetrahydrooxepin-3-yl)-[1,2,4]triazolo[1,5-a]pyrimidin-4(7H )-yl)acetamide] |  | 1 to 100 nM |
| CCc1c(N2CCN(C(=O)c3ncnc(C)c3O)CC2)c(=O)n2nc(-c3ccc4c(c3)CCO4)nc2n1CC(=O)Nc1cc2ccsc2cc1C [Example 168, 2-(2-(2,3-dihydrobenzofuran-5-yl)-5-ethyl-6-(4-(5-hydroxy-6-methylpyrimidine-4-carbonyl)piperazin-1-yl)-7-oxo-[1,2,4]triazolo[1,5-a]pyrimidin-4(7H)-yl)-N-(6-methylbenzo[b]thiophen-5-yl)ac etamide] |  | 1 to 100 nM |
| CCc1c(N2CCN(C(=O)c3ncnc(C)c3O)CC2)c(=O)n2nc(-c3ccc4nc(N5CCOCC5)sc4c3)nc2n1CC(=O)Nc1ccc(C(F)(F)F)cc1Cl [Example 171, N-(2-chloro-4-(trifluoromethyl)phenyl)-2-(5-ethyl-6-(4-(5-hydroxy-6-methylpyrimidine-4-carbonyl)piperazin-1-yl)-2-(2-morpholinobenzo[d]thiazol-6-yl)-7-oxo-[1,2,4]triazolo[1,5-a]pyrimidin-4(7H)-yl)acetamide] |  | 1 to 100 nM |
| CCc1c(N2CCN(C(=O)c3ncnc(C)c3O)CC2)c(=O)n2nc(C#CC3CC3)nc2n1CC(=O)Nc1ccc(C(F)(F)F)cc1Cl [Example 173, N-(2-chloro-4-(trifluoromethyl)phenyl)-2-(2-(cyclopropylethynyl)-5-ethyl-6-(4-(5-hydroxy-6-methylpyrimidine-4-carbonyl)piperazin-1-yl)-7-oxo-[1,2,4]triazolo[1,5-a]pyrimidin-4(7H)-yl)acetamide] |  | 1 to 100 nM |
| CCc1c(N2CCN(C(=O)c3ncnc(C)c3O)CC2)c(=O)n2nc(C3=CC4CC4C3)nc2n1CC(=O)Nc1ccc(SC(F)(F)F)cc1 (stereo not shown) [Example 177, 2-(2-(bicyclo[3.1.0]hex-2-en-3-yl)-5-ethyl-6-(4-(5-hydroxy-6-methylpyrimidine-4-carbonyl)piperazin-1-yl)-7-oxo-[1,2,4]triazolo[1,5-a]pyrimidin-4(7H)-yl)-N-(4-((trifluoromethyl)thio)phenyl)ac etamide] |  | 1 to 100 nM |
| CCc1c(N2CCN(C(=O)c3ncnc(C)c3O)CC2)c(=O)n2nc(-c3cc4c(s3)CCN(CC(F)(F)F)C4)nc2n1CC(=O)Nc1ccc(C(F)(F)F)cc1Cl [Example 179, N-(2-chloro-4-(trifluoromethyl)phenyl)-2-(5-ethyl-6-(4-(5-hydroxy-6-methylpyrimidine-4-carbonyl)piperazin-1-yl)-7-oxo-2-(5-(2,2,2-trifluoroethyl)-4,5,6,7-tetrahydrothieno[3,2-c]pyridin-2-yl)-[1,2,4]triazolo[1,5-a]pyrimidin-4(7H)-yl)acetamide] |  | < 1 nM |
| CCc1c(N2CCN(C(=O)c3ncnc(C)c3O)CC2)c(=O)n2nc(-c3ccc4c(c3)CN(CC(F)(F)F)CCO4)nc2n1CC(=O)Nc1ccc(C(F)(F)F)cc1Cl [Example 180, N-(2-chloro-4-(trifluoromethyl)phenyl)-2-(5-ethyl-6-(4-(5-hydroxy-6-methylpyrimidine-4-carbonyl)piperazin-1-yl)-7-oxo-2-(4-(2,2,2-trifluoroethyl)-2,3,4,5-tetrahydrobenzo[f][1,4]oxazepin-7-yl) -[1,2,4]triazolo[1,5-a]pyrimidin-4(7H)-yl)acetamide] |  | 1 to 100 nM |
| [2H]C([2H])([2H])Sc1ccc(NC(=O)Cn2c(CC)c(N3CCN(C(=O)c4ncnc(C)c4O)CC3)c(=O)n3nc(C4=CC5CC5C4)nc23)cc1 (stereo not shown) [Example 181, 2-(2-(Bicyclo[3.1.0]hex-2-en-3-yl)-5-ethyl-6-(4-(5-hydroxy-6-methylpyrimidine-4-carbonyl)piperazin-1-yl)-7-oxo-[1,2,4]triazolo[1,5-a]pyrimidin-4(7H)-yl)-N-(4-((methyl-d3)thio)phenyl)acetamide] |  | 1 to 100 nM |
| CCc1c(N2CCN(C(=O)c3ncnc(C)c3O)CC2)c(=O)n2nc(/C=C/C(=O)N(C)C)nc2n1CC(=O)Nc1ccc(C(F)(F)F)cc1Cl [Example 182, (E)-3-(4-(2-((2-chloro-4-(trifluoromethyl)phenyl)amino)-2-oxoethyl)-5-ethyl-6-(4-(5-hydroxy-6-methylpyrimidine-4-carbonyl)piperazin-1-yl)-7-oxo-4,7-dihydro-[1,2,4]triazolo[1,5-a]pyrimidin-2-yl)-N,N-dimethylacrylamide] |  | 1 to 100 nM |
